Assay results as given in patent US12157741B2, “Macrocyclic inhibitors of DYRK1A” (DANA-FARBER CANCER INSTITUTE, INC., priority 2018, dated 2024).
Where two headings read alike, the source gives them in different places.

Key:
Format in all cases: binding
various enzymes [1] = biological target: various enzymes (Homo sapiens, UniProt O75582); settings: compound 1 uM
Method: (§1) Ambit profiling was conducted in accordance with the manufacturer's instructions.

various enzymes [2] = biological target: various enzymes (Homo sapiens, UniProt Q8NG66); settings: compound 1 uM
various enzymes (Homo sapiens, UniProt Q8NG66), sequence (Q8NG66 whole entry): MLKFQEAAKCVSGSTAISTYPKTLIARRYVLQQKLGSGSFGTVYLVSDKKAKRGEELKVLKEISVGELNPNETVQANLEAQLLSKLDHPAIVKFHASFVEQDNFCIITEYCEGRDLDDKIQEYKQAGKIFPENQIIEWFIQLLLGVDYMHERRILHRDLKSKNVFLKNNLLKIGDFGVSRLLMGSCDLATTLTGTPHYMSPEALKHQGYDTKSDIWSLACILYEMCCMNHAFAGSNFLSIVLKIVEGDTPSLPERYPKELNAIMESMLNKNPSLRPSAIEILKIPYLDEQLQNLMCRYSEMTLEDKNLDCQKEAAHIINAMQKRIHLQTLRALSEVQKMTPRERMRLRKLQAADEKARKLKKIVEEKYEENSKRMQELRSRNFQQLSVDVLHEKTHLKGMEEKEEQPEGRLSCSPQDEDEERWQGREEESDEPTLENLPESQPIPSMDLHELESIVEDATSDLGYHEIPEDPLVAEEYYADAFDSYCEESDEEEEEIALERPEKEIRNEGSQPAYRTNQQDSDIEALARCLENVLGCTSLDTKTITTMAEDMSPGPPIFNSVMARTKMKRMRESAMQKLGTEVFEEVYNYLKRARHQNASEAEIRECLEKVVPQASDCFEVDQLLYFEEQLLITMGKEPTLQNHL
Method: as §1

various enzymes [3] = biological target: various enzymes (Homo sapiens, UniProt P68400); settings: compound 1 uM
Method: as §1

various enzymes [4] = biological target: various enzymes (Homo sapiens, UniProt P08631); settings: compound 1 uM
Method: as §1

various enzymes [5] = biological target: various enzymes (Homo sapiens, UniProt P36888, D835Y)
Method: as §1

various enzymes [6] = biological target: various enzymes (Homo sapiens, UniProt P27037); settings: compound 1 uM
Method: as §1

various enzymes [7] = biological target: various enzymes (Homo sapiens, UniProt P78362); settings: compound 1 uM
various enzymes (Homo sapiens, UniProt P78362), sequence (P78362 whole entry): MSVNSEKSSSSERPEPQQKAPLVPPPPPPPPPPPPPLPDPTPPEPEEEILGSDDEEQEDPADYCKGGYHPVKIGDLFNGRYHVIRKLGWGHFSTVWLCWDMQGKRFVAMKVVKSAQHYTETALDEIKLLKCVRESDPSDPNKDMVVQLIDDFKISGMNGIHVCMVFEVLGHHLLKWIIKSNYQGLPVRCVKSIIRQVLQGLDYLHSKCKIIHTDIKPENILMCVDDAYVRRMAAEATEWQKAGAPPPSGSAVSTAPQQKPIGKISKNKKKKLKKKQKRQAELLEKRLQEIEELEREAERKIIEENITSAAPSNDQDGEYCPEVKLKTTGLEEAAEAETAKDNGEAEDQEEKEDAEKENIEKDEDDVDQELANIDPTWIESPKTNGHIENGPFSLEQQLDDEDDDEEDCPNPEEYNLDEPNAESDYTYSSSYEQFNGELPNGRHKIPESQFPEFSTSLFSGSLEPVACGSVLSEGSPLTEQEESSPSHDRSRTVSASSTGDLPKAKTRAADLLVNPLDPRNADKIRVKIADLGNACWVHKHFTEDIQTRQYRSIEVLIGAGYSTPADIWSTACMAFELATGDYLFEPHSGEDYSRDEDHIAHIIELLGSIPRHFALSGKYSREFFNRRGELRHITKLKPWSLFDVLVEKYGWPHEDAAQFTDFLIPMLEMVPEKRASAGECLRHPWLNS
Method: as §1

various enzymes [8] = biological target: various enzymes (Homo sapiens, UniProt P53667); settings: compound 1 uM
Method: as §1

various enzymes [9] = biological target: various enzymes (Homo sapiens, UniProt Q9BX84); settings: compound 1 uM
Method: as §1

various enzymes [10] = biological target: T1, various enzymes (Homo sapiens, UniProt O43283); settings: compound 1 uM
T1 sequence (O43283 1-966): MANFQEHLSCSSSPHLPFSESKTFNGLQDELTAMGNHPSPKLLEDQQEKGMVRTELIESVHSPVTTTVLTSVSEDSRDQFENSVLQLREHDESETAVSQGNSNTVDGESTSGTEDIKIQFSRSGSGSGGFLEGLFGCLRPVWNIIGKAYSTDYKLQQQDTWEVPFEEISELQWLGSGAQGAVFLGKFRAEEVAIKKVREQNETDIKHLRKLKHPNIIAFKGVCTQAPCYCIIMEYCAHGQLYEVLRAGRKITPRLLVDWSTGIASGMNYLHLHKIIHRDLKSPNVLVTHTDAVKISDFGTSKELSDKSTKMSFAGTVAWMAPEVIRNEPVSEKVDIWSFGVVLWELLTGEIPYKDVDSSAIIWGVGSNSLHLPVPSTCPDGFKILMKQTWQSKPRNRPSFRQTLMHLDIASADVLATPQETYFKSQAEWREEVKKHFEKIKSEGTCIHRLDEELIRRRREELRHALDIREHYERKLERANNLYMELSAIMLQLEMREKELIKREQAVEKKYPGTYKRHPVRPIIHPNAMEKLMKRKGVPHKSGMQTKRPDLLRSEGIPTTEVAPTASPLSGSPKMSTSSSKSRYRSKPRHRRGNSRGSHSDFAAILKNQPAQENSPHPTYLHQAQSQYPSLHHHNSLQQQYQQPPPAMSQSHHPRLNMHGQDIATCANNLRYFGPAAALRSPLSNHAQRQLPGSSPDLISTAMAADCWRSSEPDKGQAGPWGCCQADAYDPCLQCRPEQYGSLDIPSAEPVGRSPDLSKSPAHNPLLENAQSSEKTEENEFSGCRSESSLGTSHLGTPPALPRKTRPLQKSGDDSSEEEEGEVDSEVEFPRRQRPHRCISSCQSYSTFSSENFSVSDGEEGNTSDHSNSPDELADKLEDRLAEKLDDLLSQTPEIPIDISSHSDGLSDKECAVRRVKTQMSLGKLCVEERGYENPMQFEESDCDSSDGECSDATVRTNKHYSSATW
Method: as §1

various enzymes [11] = biological target: various enzymes (Homo sapiens, UniProt P09619); settings: compound 1 uM
various enzymes (Homo sapiens, UniProt P09619), sequence (P09619 33-1106): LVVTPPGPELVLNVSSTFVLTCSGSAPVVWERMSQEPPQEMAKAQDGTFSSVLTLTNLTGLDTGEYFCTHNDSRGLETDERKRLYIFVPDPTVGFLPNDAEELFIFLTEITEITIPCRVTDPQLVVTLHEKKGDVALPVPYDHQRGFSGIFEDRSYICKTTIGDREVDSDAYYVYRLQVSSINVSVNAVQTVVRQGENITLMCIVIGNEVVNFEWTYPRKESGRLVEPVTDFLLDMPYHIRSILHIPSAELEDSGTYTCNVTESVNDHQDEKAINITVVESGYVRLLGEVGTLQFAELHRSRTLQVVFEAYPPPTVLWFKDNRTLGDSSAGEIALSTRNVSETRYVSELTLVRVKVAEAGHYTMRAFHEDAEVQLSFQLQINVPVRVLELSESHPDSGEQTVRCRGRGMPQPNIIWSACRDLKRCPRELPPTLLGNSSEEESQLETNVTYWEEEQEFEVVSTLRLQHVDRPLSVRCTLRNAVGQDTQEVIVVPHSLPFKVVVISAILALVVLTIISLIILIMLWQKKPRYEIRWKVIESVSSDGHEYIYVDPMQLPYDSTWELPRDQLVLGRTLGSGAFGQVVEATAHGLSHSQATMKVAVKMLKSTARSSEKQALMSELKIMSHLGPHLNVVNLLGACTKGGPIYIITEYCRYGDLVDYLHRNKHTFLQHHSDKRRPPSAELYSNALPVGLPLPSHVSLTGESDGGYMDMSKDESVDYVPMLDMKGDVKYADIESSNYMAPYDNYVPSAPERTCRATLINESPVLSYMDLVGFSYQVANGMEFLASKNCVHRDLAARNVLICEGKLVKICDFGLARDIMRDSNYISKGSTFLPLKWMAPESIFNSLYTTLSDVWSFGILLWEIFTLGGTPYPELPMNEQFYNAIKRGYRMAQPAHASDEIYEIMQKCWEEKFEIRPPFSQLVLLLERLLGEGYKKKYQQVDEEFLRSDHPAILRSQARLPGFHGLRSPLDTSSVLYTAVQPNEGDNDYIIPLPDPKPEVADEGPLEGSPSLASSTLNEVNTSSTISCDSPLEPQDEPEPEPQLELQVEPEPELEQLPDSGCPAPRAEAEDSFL
Method: as §1

various enzymes [12] = biological target: various enzymes (Homo sapiens, UniProt Q00536); settings: compound 1 uM
various enzymes (Homo sapiens, UniProt Q00536), sequence (Q00536 whole entry): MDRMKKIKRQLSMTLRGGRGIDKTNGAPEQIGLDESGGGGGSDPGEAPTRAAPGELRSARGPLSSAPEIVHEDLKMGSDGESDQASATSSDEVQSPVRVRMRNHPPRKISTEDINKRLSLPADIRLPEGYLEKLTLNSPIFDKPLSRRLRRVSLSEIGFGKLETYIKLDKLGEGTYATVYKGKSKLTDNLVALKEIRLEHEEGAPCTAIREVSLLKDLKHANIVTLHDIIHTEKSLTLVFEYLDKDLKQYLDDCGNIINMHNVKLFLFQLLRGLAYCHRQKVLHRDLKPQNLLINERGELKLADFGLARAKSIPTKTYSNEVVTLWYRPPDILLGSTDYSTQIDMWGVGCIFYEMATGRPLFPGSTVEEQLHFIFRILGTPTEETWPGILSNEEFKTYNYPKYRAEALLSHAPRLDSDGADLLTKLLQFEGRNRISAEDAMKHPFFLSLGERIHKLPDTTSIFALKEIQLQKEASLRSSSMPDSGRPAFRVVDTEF
Method: as §1

various enzymes [13] = biological target: various enzymes (Homo sapiens, UniProt P21860); settings: compound 1 uM
various enzymes (Homo sapiens, UniProt P21860), sequence (P21860 20-1342): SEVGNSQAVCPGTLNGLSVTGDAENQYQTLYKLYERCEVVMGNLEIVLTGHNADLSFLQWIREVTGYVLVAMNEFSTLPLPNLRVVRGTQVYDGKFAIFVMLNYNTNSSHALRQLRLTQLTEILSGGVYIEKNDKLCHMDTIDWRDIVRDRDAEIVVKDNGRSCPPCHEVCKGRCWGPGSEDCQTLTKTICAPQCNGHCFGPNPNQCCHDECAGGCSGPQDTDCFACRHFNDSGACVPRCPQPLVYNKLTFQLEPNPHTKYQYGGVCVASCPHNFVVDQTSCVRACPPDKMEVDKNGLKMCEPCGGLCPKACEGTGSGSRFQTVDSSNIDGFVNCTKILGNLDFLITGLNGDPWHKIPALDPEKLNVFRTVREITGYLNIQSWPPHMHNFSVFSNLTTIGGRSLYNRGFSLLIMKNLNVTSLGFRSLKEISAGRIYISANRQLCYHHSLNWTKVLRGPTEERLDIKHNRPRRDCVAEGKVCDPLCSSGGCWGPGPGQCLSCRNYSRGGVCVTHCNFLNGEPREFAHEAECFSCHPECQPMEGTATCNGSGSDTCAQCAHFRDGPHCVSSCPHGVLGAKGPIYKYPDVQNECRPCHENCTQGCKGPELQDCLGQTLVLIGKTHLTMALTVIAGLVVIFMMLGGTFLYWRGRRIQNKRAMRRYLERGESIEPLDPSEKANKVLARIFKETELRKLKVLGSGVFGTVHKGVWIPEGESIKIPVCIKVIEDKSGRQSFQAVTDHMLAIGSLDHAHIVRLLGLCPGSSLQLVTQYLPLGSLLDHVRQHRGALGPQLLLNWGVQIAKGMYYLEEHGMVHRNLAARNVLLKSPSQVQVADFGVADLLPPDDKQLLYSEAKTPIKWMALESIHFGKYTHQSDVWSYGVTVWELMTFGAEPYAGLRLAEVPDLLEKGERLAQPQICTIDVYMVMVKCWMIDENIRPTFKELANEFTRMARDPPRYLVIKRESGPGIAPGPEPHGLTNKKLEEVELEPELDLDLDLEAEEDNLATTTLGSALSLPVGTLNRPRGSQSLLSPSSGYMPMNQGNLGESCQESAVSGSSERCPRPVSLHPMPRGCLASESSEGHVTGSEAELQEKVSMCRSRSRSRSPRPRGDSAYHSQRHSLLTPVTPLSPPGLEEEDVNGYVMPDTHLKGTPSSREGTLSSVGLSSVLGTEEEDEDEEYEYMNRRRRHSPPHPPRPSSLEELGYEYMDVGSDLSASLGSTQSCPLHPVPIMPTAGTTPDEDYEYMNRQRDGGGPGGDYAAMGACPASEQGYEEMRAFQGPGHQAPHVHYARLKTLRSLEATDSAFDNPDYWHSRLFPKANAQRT
Method: as §1

various enzymes [14] = biological target: T2, various enzymes (Homo sapiens, UniProt Q12852); settings: compound 1 uM
T2 sequence (Q12852 1-859): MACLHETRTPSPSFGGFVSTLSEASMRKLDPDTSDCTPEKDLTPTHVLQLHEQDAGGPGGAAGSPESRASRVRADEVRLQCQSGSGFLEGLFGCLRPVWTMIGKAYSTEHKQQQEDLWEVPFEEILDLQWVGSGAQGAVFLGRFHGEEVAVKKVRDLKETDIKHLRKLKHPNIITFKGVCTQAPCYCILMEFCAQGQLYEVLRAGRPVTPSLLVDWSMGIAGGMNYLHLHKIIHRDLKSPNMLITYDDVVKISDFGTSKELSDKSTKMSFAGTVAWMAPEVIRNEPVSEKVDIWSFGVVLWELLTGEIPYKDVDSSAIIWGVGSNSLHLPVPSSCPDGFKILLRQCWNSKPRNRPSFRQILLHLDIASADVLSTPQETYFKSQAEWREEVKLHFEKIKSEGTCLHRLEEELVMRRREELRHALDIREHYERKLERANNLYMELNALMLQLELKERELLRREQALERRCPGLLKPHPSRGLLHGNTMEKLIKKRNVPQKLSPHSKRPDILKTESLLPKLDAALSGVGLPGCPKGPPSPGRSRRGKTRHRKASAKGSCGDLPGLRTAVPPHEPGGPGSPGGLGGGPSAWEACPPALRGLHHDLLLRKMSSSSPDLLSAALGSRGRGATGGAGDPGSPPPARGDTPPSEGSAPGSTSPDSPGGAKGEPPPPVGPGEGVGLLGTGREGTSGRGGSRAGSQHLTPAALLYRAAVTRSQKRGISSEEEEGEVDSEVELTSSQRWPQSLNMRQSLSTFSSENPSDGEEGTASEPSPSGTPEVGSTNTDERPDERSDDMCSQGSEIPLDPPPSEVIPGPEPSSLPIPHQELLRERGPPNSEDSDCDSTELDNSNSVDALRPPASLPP
Method: as §1

various enzymes [15] = biological target: various enzymes (Homo sapiens, UniProt P00519, Y253F)
Method: as §1

various enzymes [16] = biological target: various enzymes (Homo sapiens, UniProt P10721, T670I/V559D)
Method: as §1

various enzymes [17] = biological target: various enzymes (Homo sapiens, UniProt Q8TDX7); settings: compound 1 uM
Method: as §1

various enzymes [18] = biological target: various enzymes (Homo sapiens, UniProt Q16816); settings: compound 1 uM
Method: as §1

various enzymes [19] = biological target: various enzymes (Homo sapiens, UniProt P49674); settings: compound 1 uM
Method: as §1

various enzymes (Homo sapiens, UniProt O75582), sequence (O75582 whole entry): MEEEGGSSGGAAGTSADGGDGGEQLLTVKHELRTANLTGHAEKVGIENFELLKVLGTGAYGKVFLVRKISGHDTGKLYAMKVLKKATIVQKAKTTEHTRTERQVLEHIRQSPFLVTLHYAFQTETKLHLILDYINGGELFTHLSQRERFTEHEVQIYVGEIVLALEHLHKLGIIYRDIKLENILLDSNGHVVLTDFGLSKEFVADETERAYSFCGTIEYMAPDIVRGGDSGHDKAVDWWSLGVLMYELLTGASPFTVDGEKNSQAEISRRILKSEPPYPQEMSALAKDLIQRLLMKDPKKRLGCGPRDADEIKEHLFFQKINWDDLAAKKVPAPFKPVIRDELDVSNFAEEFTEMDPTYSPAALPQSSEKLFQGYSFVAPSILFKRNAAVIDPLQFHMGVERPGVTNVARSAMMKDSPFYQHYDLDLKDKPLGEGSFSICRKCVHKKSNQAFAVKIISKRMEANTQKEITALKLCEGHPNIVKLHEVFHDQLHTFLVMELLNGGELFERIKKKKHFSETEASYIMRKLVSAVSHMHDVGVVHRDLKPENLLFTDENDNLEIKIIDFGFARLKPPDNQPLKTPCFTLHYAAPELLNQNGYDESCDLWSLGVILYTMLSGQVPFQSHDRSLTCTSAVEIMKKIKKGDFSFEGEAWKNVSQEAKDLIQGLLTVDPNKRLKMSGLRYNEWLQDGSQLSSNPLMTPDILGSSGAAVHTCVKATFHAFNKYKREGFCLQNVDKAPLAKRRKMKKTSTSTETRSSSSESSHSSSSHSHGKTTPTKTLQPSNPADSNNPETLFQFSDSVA

SMILES | Ambit profiling: RPS6KA5(Kin.Dom.1-N-terminal) (various enzymes [1]) | Ambit profiling: RPS6KA5(Kin.Dom.2-C-terminal) (various enzymes [1]) | Ambit profiling: NEK11 (various enzymes [2]) | Ambit profiling: CSNK2A1 (various enzymes [3]) | Ambit profiling: HCK (various enzymes [4]) | Ambit profiling: ACVR2A (various enzymes [6]) | Ambit profiling: SRPK2 (various enzymes [7]) | Ambit profiling: LIMK1 (various enzymes [8]) | Ambit profiling: TRPM6 (various enzymes [9]) | Ambit profiling: LZK (various enzymes [10]) | Ambit profiling: PDGFRB (various enzymes [11]) | Ambit profiling: PCTK1 (various enzymes [12]) | Ambit profiling: ERBB3 (various enzymes [13]) | Ambit profiling: DLK (various enzymes [14]) | Ambit profiling: NEK7 (various enzymes [17]) | Ambit profiling: PHKG1 (various enzymes [18]) | Ambit profiling: CSNK1E (various enzymes [19]) | further results
CC(C)N1Cc2nn(C)cc2-c2cnc3[nH]cc(c3c2)-c2cn(nc2C(F)(F)F)CCCC1=O [Compound 45, (Z)-5-isopropyl-31-methyl-13-(trifluoromethyl)-11H,21H,31H-5-aza-2(3,5)-pyrrolo[2,3-b]pyridina-1(4,1),3(4,3)-dipyrazolacyclononaphan-6-one] | 70 | 100 | 100 | 19 | 24 | 100 | 100 | 93 | 83 | 42 | 0.1 | 20 | 100 | 32 | 97 | 34 | 23 | Ambit profiling: FLT3(D835Y) (various enzymes [5]; compound 1 uM): 1.3; Ambit profiling: ABL1(V253F)-phosphorylated (various enzymes [15]; compound 1 uM): 76; Ambit profiling: KIT(V559D, T670I) (various enzymes [16]; compound 1 uM): 8.2
COc1c2c(nn1C)CN(C(C)C)C(=O)CCCn1cc(c(C(F)(F)F)n1)-c1c[nH]c3ncc-2cc13 [Compound 50, (Z)-5-isopropyl-35-methoxy-31-methyl-13-(trifluoromethyl)-11H,21H,31H-5-aza-2(3,5)-pyrrolo[2,3-b]pyridina-1(4,1),3(4,3)-dipyrazolacyclononaphan-6-one] | 18 | 72 | 94 | 59 | 8.1 | 96 | 74 | 91 | 100 | 68 | 0 | 66 | 100 | 25 | 68 | 34 | 13 | Ambit profiling: FLT3(D835Y) (various enzymes [5]): 0.7; Ambit profiling: ABL1(Y253F)-phosphorylated (various enzymes [15]): 10; Ambit profiling: KIT(V559D, T670I) (various enzymes [16]): 10
